Values joined by “and” are separate entries in the source; they are usually repeats but may differ in a detail not shown here. Identical values can stand only once.
Tests used:
[1] = test system: Human B lymphoma cell Ramos (Burkitt lymphoma); assay: Inhibition of proliferation of Ramos cells in vitro (MTT, 72 h); format: cell-based
Description: (§1) Cell suspensions (Ramos: 10000 cells/well; TMD8: 12000 cells/well) were seeded in a 96-well plate, placed in an incubator for 2 hours at 37° C., after the cell state was stabilized, different concentrations of tested compounds were added to each well (each concentration was set with 3 duplicate wells), and blank control (only containing culture solution, but not containing cells), negative control (only adding cells, but not adding compounds) and positive compound control were set at the same time. After 72 h treatment, 20 μL MTT (5 mg/ml) was added to each well and incubated for 4 h at 37° C. 100 μL triple solution (10% SDS, 5% isobutanol, 0.01 M HCl) was added and placed overnight at 37° C. The OD value was measured with microplate enzyme-labeled instrument SPECTRA MAX Plus 384 with adjustable wavelength at 570 nm.
(§2) The inhibition rate of the compound was obtained by the following formula: […]
(§3) The IC50 value was obtained by four-parameter regression using the software attached to the microplate reader.

[2] = test system: Human diffuse large B lymphoma cell TMD8; assay: Inhibition of proliferation of TMD8 cells in vitro (MTT, 72 h); format: cell-based
Description: as §1, §2, §3

[3] = Further study of metabolism of earlier compounds; format: in vitro ADME; conditions: 4-position of terminal phenyl easy to be oxidized
[4] = target: BTK (Homo sapiens, UniProt Q06187); conditions: disclosed in patent CN108101905A; cited from earlier work
Sequence of BTK (Q06187 whole entry): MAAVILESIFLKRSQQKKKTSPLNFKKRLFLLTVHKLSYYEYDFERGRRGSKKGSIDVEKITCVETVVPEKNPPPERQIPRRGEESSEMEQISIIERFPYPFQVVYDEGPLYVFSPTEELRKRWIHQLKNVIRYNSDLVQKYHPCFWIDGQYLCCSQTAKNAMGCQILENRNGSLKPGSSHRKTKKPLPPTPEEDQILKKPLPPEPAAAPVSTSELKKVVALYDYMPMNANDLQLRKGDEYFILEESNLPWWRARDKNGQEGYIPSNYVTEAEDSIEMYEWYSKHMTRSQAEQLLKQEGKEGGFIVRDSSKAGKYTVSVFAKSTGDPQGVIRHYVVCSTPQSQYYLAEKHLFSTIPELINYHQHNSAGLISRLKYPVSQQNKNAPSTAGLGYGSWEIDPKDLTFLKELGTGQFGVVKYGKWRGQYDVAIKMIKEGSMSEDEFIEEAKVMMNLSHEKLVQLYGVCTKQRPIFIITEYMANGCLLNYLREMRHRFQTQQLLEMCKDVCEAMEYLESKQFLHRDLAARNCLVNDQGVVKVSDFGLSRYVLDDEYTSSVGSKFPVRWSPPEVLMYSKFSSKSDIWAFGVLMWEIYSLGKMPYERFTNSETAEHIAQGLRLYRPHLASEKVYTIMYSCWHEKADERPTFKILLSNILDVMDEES

[5] = target: BTK tyrosine kinase protein (Homo sapiens, UniProt Q06187); assay: Inhibitory activity evaluation of Bruton kinase (BTK) at molecular level (ELISA); format: biochemical; conditions: ATP 5 μM
Sequence of BTK tyrosine kinase protein (Q06187 whole entry): as above
Description: The enzyme reaction substrate Poly (Glu, Tyr)4:1 was diluted with potassium-free PBS (10 mM sodium phosphate buffer, 150 mM NaCl, pH 7.2-7.4) to 20 μg/ml, and coated enzyme plate. After reacting at 37° C. for 12-16 hours, the plate was washed three times with 200 μL/well T-PBS (PBS containing 0.1% Tween-20) and dried in 37° C. oven for 1-2 hours. 49 μL/well ATP solution (final concentration was 5 μM) diluted with a reaction buffer (50 mM HEPES pH 7.4, 50 mM MgCl2, 0.5 mM MnCl2, 0.2 mM Na3VO4, 1 mM DTT) was firstly added into the substrate-coated plate. 1 μL compound to be tested (compound well) or DMSO with corresponding concentration (negative control well) was added into each well, and enzyme-free control well was set up for each experiment. Then 50 μL of BTK tyrosine kinase protein diluted with reaction buffer was added to start the reaction.
The above reaction system was placed in a shaking table (100 rpm) for 1 hour at 37° C., then the plate was washed with T-PBS for three times, and the primary antigen PY99 100 μL/well (Santa Cruz) was added, and the reaction was carried out in a shaking table for 0.5 hours at 37° C. […]

[6] = test system: human lymphoma TMD8 xenograft; assay: Anti-tumor activity in vivo, TMD8 xenograft tumor model; parameters: species or system Mice; conditions: for Tumor volume: 17th day, mean ± SEM
Description: (§4) • 1) Species: Mice • 2) Strain: CB-17 SCID • 3) Age and body weight: 6-8 weeks; 18-22 g • 4) Sex: Female • 5) Supplier: Beijing Vital River Laboratory Animal Technology Co., Ltd. REC-1 Xenograft Tumor Model • 1) Species: Mice • 2) Strain: BALB/c nude mice • 3) Age and body weight: 6-8 weeks; 17-20 g • 4) Sex: Female • 5) Supplier: Shanghai Lingchang Biotechnology Co., Ltd.
(§5) Conventional treatment was carried out twice a week. When the cell saturation was 80%-90%, the cells were collected, counted and inoculated.
Tumor cell inoculation: 0.2 mL 10×10^6 Human lymphoma TMD8 cells were subcutaneously inoculated into the right back of each nude mouse (PBS:Matrigel=1:1). When the average tumor volume reached 104 mm^3, group administration began. Each group of 6 mice was grouped according to the tumor volume by random grouping software based on Excel.
(§6) The health status and death status of animals were monitored every day. Routine examinations included observing the effects of tumor growth and drug treatment on daily behaviors of animals, such as behavioral activities, food intake and water intake (visual inspection only), weight change (weight measurement three times a week), appearance signs or other abnormal conditions. Based on the number of animals in each group, the number of animal deaths and side effects in each group were recorded.
(§7) Tumor measurement and experimental indexes: the experimental index was to investigate whether the tumor growth is inhibited, delayed or cured. The tumor diameter was measured with vernier caliper three times a week.
(§8) TGI (%), reflecting the tumor growth inhibition rate.
(§9) Relative tumor proliferation rate T/C (%): the calculation formula is as follows:
(§10) T/C %=TRTV/CRTV×100% (TRTV: Relative tumor volume in treatment group; CRTV: Relative tumor volume in negative control group).
(§11) Statistical analysis: Statistical analysis, including the mean value of tumor volume and standard error (SEM) at each time point in each group. […] Three or more groups were compared with one-way ANOVA. If there were significant differences in F values, Games-Howell method was used to test. All data were analyzed with SPSS 17.0. p<0.05 was considered as significant difference.

[7] = Oral bioavailability of earlier compound; conditions: in vivo
[8] = in vivo; conditions: male, Sprague-Dawley (SD), rat
Description: Fourteen SD rats, male, weighing 200-220 g, were randomly divided into 4 groups (4/3 rats in each group) and given the tested compounds by intragastric administration and intravenous administration respectively.
0.5% sodium carboxymethyl cellulose (CMC-Na) containing 1% Tween 80 was formulated for intragastric administration, and 5% DMSO/5% Tween 80/90% normal saline was formulated for intravenous administration.
Fasting for 12 hours and drinking water freely before the test. Eat uniformly 2 hours after administration.
At the above set time point, 0.3 ml of venous blood was taken through the posterior venous plexus of the rat eyeball, placed in a heparinized test tube, centrifuged at 11000 rpm for 5 minutes, and the plasma was separated, frozen in the fridge at −20° C.
The concentration of S17016 in rat plasma was determined by LC/MS/MS.

[9] = Metabolic stability test in rat liver microsomes; format: in vitro ADME; conditions: RLM, 0.1 μM drug, 0.33 mg/ml microsomes, NADPH
Description: (§12) Liver microsomes were incubated in a 96-well plate, and the volume of each incubated system was 450 μL with a medium of 0.1 M Tris buffer (pH 7.4), including liver microsomes with a final concentration of 0.33 mg/ml, 0.1 μM of tested drugs and 5.0 mM MgCl2, 0.01% DMSO, 0.005% BSA and 1.0 mM NADPH. Incubated at 37° C. for 10 min, NADPH was added to initiate the reaction, and 50 μL was taken out and added with the same volume of methanol to terminate the reaction after 0, 7, 17, 30 and 60 min, respectively.
(§13) S17016 in incubated samples was determined by LC/MS/MS with electrospray ionization (ESI) as the ion source and multi-reaction monitoring (MRM) as the scanning mode.
(§14) The experimental results of metabolic stability in vitro of S17016 in different liver microsomes (HLM: human liver microsomes; RLM: rat liver microsomes; MLM: mouse liver microsomes) were shown in Table 9 and FIG. 3 below.

[10] = test system: human mantle cell lymphoma REC-1 xenograft; assay: Anti-tumor activity in vivo, REC-1 xenograft tumor model; parameters: species or system Mice; conditions: for T/C (%) / TGI (%): day 15; for Tumor volume (mm^3) (Day 15): day 15, mean ± SEM
Description: as §4, §5
0.2 mL 5×10^6 REC-1 cells were subcutaneously inoculated into the right back of each nude mouse (PBS:Matrigel=1:1). When the average tumor volume reached 100 mm^3, group administration began. Each group of 6 mice was grouped according to the tumor volume by random grouping software based on Excel.
as §6, §7, §8, §9, §10, §11

[11] = Metabolic stability test in mouse liver microsomes; format: in vitro ADME; conditions: MLM, 0.1 μM drug, 0.33 mg/ml microsomes, NADPH
Description: as §12, §13, §14

[12] = Metabolic stability test in human liver microsomes; format: in vitro ADME; conditions: HLM, 0.1 μM drug, 0.33 mg/ml microsomes, NADPH
Description: as §12, §13, §14

In the case of CC#CC(=O)N1CCC[C@H]1c1nc(-c2ccc(C(=O)Nc3ccccn3)cc2)c2c(N)nccn12 [Acalabrutinib], the IC50 [1] is reported as 38200 nM and the IC50 [2] is reported as 23 nM.

With C=CC(=O)N[C@@H]1CCc2c(-c3ccc(Oc4ccccc4)cc3)c3c(N)ncnc3n2C1 [Compound S1] the stability in metabolism [3] was “unstable in metabolism”, the IC50 [1] was 94700 nM and the IC50 [2] was 6 nM. The BTK inhibitory activity [4] was “high BTK inhibitory activity”.

In the case of CC#CC(=O)N[C@@H]1CCc2c(-c3ccc(Oc4ccccc4)cc3)c3c(N)ncnc3n2C1 [Compound S10], the stability in metabolism [3] is reported as “unstable in metabolism”, the IC50 [5] is reported as < 10 nM and the IC50 [1] is reported as 8720 nM. The IC50 [2] was 30 nM and the BTK inhibitory activity [4] was “high BTK inhibitory activity”.

In the case of C=CC(=O)NC1Cn2c(c(-c3ccc(Oc4ccccc4)cc3)c3c(N)ncnc32)C1=C (stereo not drawn) [Compound S18s, reference compound], the stability in metabolism [3] is reported as “unstable in metabolism”, the IC50 [1] is reported as 5040 nM and the IC50 [2] is reported as 16 nM. For the same molecule, the “T/C (%)” value ([6]; 15 mg/kg, day 0) was 100%, the “T/C (%)” value ([6]; 15 mg/kg, day 6) was 53.51% and the “T/C (%)” value ([6]; 15 mg/kg, day 8) was 47.28%. The “T/C (%)” value ([6]; 15 mg/kg, day 11) was 37.73% and the “T/C (%)” value ([6]; 15 mg/kg, day 13) was 34.97%.

With C=C1c2c(-c3ccc(Oc4ccccc4)cc3)c3c(N)ncnc3n2CC1NC(=O)C#CC (stereo not drawn) [Compound S19s] the stability in metabolism [3] was “unstable in metabolism” and the IC50 [2] was 17 nM.

In the case of C=CC(=O)NC1Cn2c(c(-c3ccc(C(=O)Nc4ccccn4)cc3)c3c(N)ncnc32)C1=C (stereo not drawn) [Compound S20s], the IC50 [1] is reported as 14300 nM, the IC50 [2] is reported as 4 nM and the oral bioavailability [7] is reported as “not ideal”.

C=C1c2c(-c3ccc(C(=O)Nc4ccccn4)cc3)c3c(N)ncnc3n2C[C@H]1NC(=O)C#CC [Compound S17016] gave a bioavailability ([8]; in vivo) of 24.8%, a Vd ([8]; in vivo, iv, 1 mg/kg) of 0.221 L/kg and a clearance ([8]; in vivo, iv, 1 mg/kg) of 3.33 mL/min/kg. The half-life ([8]; in vivo, iv, 1 mg/kg) was 75.6 min, the AUC ([8]; in vivo, po, 3 mg/kg) was 3860 ng·h/mL and the Cmax ([8]; in vivo, po, 3 mg/kg) was 2700 ng/mL. For the same molecule, the Tmax ([8]; in vivo, po, 3 mg/kg) was 15 min, the “Absolute value of peak area, M0: parent compound” value (“Absolute value of peak area, M0” for short) [9] was 12675 and the “M0: parent compound, share of peak area” value [9] was “(84.07%)”. The “T/C (%)” value ([10]; 15 mg/kg) was 30%, the “TGI (%)” value ([10]; 15 mg/kg) was 73% and the “Tumor volume (mm^3) (Day 15)” value ([10]; 15 mg/kg, 15 mg/kg) was 1034 mm^3 and 1034 ± 202 mm^3. The “T/C (%)” value ([10]; 30 mg/kg) was 19%, the “TGI (%)” value ([10]; 30 mg/kg) was 83% and the “Tumor volume (mm^3) (Day 15)” value ([10]; 30 mg/kg, 30 mg/kg) was 680 mm^3 and 680 ± 106 mm^3. The IC50 [5] was 0.5 nM, the IC50 [1] was 3150 nM and the “Absolute value of peak area, M0” value [11] was 19033. The “M0: parent compound, share of peak area” value [11] was “(97.82%)”, the IC50 [2] was 3 nM and the “Absolute value of peak area, M0” value [12] was 20285. The “M0: parent compound, share of peak area” value [12] was “(97.45%)”, the Tumor volume ([6]; 5 mg/kg) was 912 mm^3 and 912 ± 114 mm^3 and the “T/C (%)” value ([6]; 5 mg/kg, day 17) was 49.27%. The “TGI (%)” value ([6]; 5 mg/kg, day 17) was 53.78%, the Tumor volume ([6]; 10 mg/kg) was 553 mm^3 and 553 ± 56 mm^3 and the “T/C (%)” value ([6]; 10 mg/kg, day 0) was 100%. The “T/C (%)” value ([6]; 10 mg/kg, day 5) was 48.31%, the “T/C (%)” value ([6]; 10 mg/kg, day 8) was 39.22% and the “T/C (%)” value ([6]; 10 mg/kg, day 10) was 34.25%. For the same molecule, the “T/C (%)” value ([6]; 10 mg/kg, day 12) was 30.90%, the “T/C (%)” value ([6]; 10 mg/kg, day 15) was 30.56% and the “T/C (%)” value ([6]; 10 mg/kg, day 17) was 29.85%. For the same molecule, the “TGI (%)” value ([6]; 10 mg/kg, day 17) was 74.35%.

With C=CC(=O)N1CCC[C@@H](n2nc(-c3ccc(Oc4ccccc4)cc3)c3c(N)ncnc32)C1 [Ibrutinib, reference compound] the bioavailability ([8]; plasma, oral, 3 mg/kg) was 4%, the AUC ([8]; plasma, po, 3 mg/kg) was 57 ng·h/mL and the “TGI (%)” value ([10]; 25 mg/kg) was 64%. For the same molecule, the “Tumor volume (mm^3) (Day 15)” value ([10]; 25 mg/kg, 25 mg/kg) was 1323 mm^3 and 1323 ± 195 mm^3, the IC50 [1] was 12900 nM and the IC50 [2] was 5 nM. The Tumor volume ([6]; 25 mg/kg) was 661 mm^3 and 661 ± 168 mm^3 and the “TGI (%)” value ([6]; 25 mg/kg, day 17) was 68.18%.

Source: US12384795B2, “Pyrimido[5,4-b]pyrrolizin compound, optical isomer thereof, preparation method therefor and use thereof” (SHANGHAI INSTITUTE OF MATERIA MEDICA, CHINESE ACADEMY OF …, priority 2019, dated 2025)
